From PubChem BioAssay (NCI) come the findings set out here.

What all share (assay): DTP human tumour cell line panel, 48 h
For assay [1], the system named is SR leukemia.
The test system of assay [2] is CAKI-1 renal.
Assay [3] has as its system 786-0 renal.
Assay [4] relates to NCI-H23 lung.
The test system of assay [5] is SF-268 CNS.
In assay [6] the test system is A549 NSCLC.
Assay [7] deals with HOP-92 NSCLC.
Assay [8] relates to U251 CNS.
For assay [9], the system named is BT-549 breast.
For assay [10], the system named is LOX IMVI melanoma.

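Test compounds were applied to cells in 96-well plates for 48 hours at 5 doses. Abbreviation: GI50, concentration required for 50% inhibition of growth. At the TGI there is no net growth.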 Some results are limits rather than exact numbers.

As a reminder, the GI50 is the concentration at which growth is held to half of that of the control. For orientation: TGI means the concentration at which net growth stops. The low end stands for greater sensitivity of the cells, the high end for lower sensitivity of the cells.

In the case of `CS[C@@]1(C(=O)Nc2ccc3[nH]nc(-c4ccc(OC(C)C)nc4)c3c2)CCN(CC(=O)N2CC=C(c3ccc(-c4ncn(C)n4)cc3)CC2)C1`, the GI50 in assay [1] is 4350 nM; in assay [2], greater than 100000 nM; in assay [3], 5270 nM; in assay [4] it was 160 nM; in assay [5] it was greater than 100000 nM; in assay [6], 1600 nM. For the same molecule, the GI50 was 228 nM in assay [7], 1650 nM in [8], 9430 nM in [9] and 204 nM in assay [10]. The TGI in [1] is 63600 nM; in assay [2] it was greater than 100000 nM; in assay [3], greater than 100000 nM; in assay [4] it was greater than 100000 nM; in assay [5], greater than 100000 nM; in assay [6], greater than 100000 nM. Further, the TGI in assay [7] was 1660 nM; in [8], greater than 100000 nM; in assay [9], greater than 100000 nM; in [10], 8280 nM.

Take `O=C(CC1(O)C(=O)Nc2c(Cl)ccc(Cl)c21)c1ccc(C2CC2)cc1` (stereo not drawn): the 50% growth inhibitory concentration (GI50) in assay [1] was 106 nM; in [2], 449 nM; in assay [3], 1780 nM; in [4] it was 772 nM; in [5] it was 2980 nM; in [6], 2090 nM. Moreover, the GI50 in [7] is 769 nM; in assay [8], 1130 nM; in [9], 984 nM; in assay [10], 392 nM. The TGI was found to be 15300 nM in [1]; 17300 nM in assay [2]; 16900 nM in [3]; 23100 nM in assay [4]; 23400 nM in assay [5]; 19800 nM in assay [6]. Further, the TGI was 14800 nM in assay [7], 14600 nM in assay [8], 11000 nM in [9] and 14000 nM in [10].

For `O=C(Nc1ccc(S(=O)(=O)NC2CCCCCC2)cc1)C(c1ccccc1)S(=O)(=O)c1ccc(F)cc1` (stereo not drawn), the GI50 in assay [1] was 410 nM; in [3], 448 nM; in assay [4] it was 187 nM; in assay [5], 933 nM; in assay [6] it was 854 nM; in assay [7], 845 nM. Besides, the GI50 is 510 nM in [8], 348 nM in assay [9] and 112 nM in assay [10]. For the same molecule, the TGI in assay [1] turned out to be 4420 nM; in [3], 2680 nM; in assay [4] it was 933 nM; in assay [5] it was 6110 nM; in assay [6] it was 2900 nM; in assay [7] it was 3900 nM. The TGI in assay [8] was 3570 nM; in [9], 1610 nM; in assay [10], 422 nM.

For `COc1cc(C2C(C#N)=C(N)Oc3cc4c(cc32)OCO4)cc2c1OCO2` (stereo not drawn), the GI50 was 69.6 nM in assay [1]; 382 nM in assay [2]; 597 nM in [3]; 313 nM in [4]; 963 nM in assay [5]; 384 nM in assay [6]. In addition, the GI50 was 407 nM in assay [7], 314 nM in assay [8], 1800 nM in [9] and 1000 nM in [10]. In addition, the TGI is greater than 100000 nM in assay [1]; greater than 100000 nM in assay [2]; greater than 90900 nM in assay [3]; greater than 100000 nM in assay [4]; 97300 nM in assay [5]; greater than 100000 nM in assay [6]. Also, the TGI in [7] was 46800 nM; in assay [8], greater than 38000 nM; in [9] it was 29500 nM; in assay [10] it was greater than 100000 nM.

For `COc1cc(/C=C/C(=O)c2ccc(Nc3nc(Nc4ccccc4)nc(Nc4ccc(Cl)cc4)n3)cc2)cc(OC)c1OC`, the GI50 in [1] was 1070 nM; in [2] it was 11000 nM; in [3] it was 9840 nM; in [4] it was 11900 nM; in assay [5] it was 23800 nM; in assay [6], greater than 32500 nM. In addition, the GI50 in assay [7] is 1910 nM; in [8] it was 4620 nM; in assay [9], 7510 nM; in assay [10], 7190 nM. Further, the TGI in [1] was 19300 nM; in [2], greater than 32500 nM; in assay [3], greater than 32500 nM; in assay [4], greater than 32500 nM; in [5] it was greater than 32500 nM; in assay [6], greater than 32500 nM. Moreover, the total growth inhibition concentration (TGI) in assay [7], in [8], in assay [9] and in assay [10] was greater than 32500 nM each time.

For `COc1ccc(NC(=O)O[C@H]2[C@H](O[C@H]3[C@@H](O)COC(O[C@H]4C[C@H]5[C@@H]6CC=C7C[C@@H](O)CC[C@]7(C)[C@H]6CC[C@]5(C)[C@H]4[C@H](C)C(=O)CCC(C)C)[C@@H]3OC(C)=O)OC[C@@H](O)[C@@H]2O)cc1` (stereo partly drawn), the GI50 was less than 10 nM in assay [1]; less than 10 nM in assay [2]; less than 10 nM in assay [3]; 28.4 nM in [4]; less than 10 nM in [5]; less than 10 nM in [6]. Further, the 50% growth inhibitory concentration (GI50) in [7], in assay [8], in assay [9] and in [10] was less than 10 nM throughout. Further, the TGI in assay [1] amounted to 29900 nM; in assay [2], 1010 nM; in assay [3], 11300 nM; in assay [4], 5030 nM; in assay [5], 2760 nM; in assay [6] it was 20500 nM. Further, the TGI in assay [7] was 2030 nM; in assay [8] it was 12200 nM; in [9] it was 11300 nM; in assay [10], less than 10 nM.

Turning to `C/C(=N\Nc1cccc(Cl)n1)c1ccccn1`, the GI50 was 421 nM in [1]; 437 nM in [2]; 671 nM in assay [3]; 1280 nM in assay [4]; 673 nM in assay [5]; 932 nM in [6]. Moreover, the GI50 in assay [7] was 1320 nM; in assay [8], 582 nM; in assay [9] it was 1400 nM; in assay [10] it was 492 nM. The TGI was greater than 44200 nM in assay [1]; 7310 nM in [2]; 17500 nM in assay [3]; greater than 37600 nM in [4]; 15200 nM in assay [5]; greater than 100000 nM in [6]. In addition, the concentration for total growth inhibition (TGI) is 21100 nM in assay [7], greater than 100000 nM in assay [8], greater than 71800 nM in [9] and greater than 25000 nM in assay [10].
